Measured values published in patent US20260115144A1, “THERAPEUTIC NANOPARTICLES ENCAPSULATING TERPENOIDS AND/OR CANNABINOIDS” (priority 2018, published 2026).

How the values were obtained:
[1] = target: T1, TRPV1 receptors (Rattus norvegicus, UniProt O35433); experiment: Calcium signaling assay (Fluo-4) in HEK TRPV1 cells; type: cell-based; conditions: 40 μg/ml, 1 h
T1 construct: expressed in transfected cells; host or cells: HEK TRPV1 cells (Helen Turner lab, Chaminade University of Honolulu), kept under geneticin
Experimental: HEK TRPV1 cells were provided by the Helen Turner lab at Chaminade University of Honolulu and maintained in MEM essential medium supplemented with 10% FBS, 50 units/ml-50 μg/ml Penicillin-Streptomycin, and 0.6 mg/ml geneticin.
HEK TRPV1 cells were harvested with trypsin, deactivated with media, and counted. Cells were centrifuged at 1000 rpm, for 5 min, at room temperature. Cells were washed twice with 1 mM Ca Assay Buffer (Na Ringers [140 mM NaCl, 2.8 mM KCl, 2 mM MgCl2, 11 mM glucose, 10 mM HEPES], 2 mM Probenecid, 1 mM CaCl2); pH 7.4), and collected by centrifugation at 1000 rpm, for 5 min, at room temperature. Cells were resuspended in 1 μM Fluo-4 (1 μl of 5 mM Fluo-4, mixed with 1 μl of 20% Pluronic F-127 in DMSO, then 5 ml of 1 mM Ca Assay Buffer was added and the mixture incubated at 37° C. for 10 min in the dark), and incubated for 30 min at 37° C. in the dark. Cells were then washed twice with 1 mM Ca assay buffer, then resuspended in the assay buffer and pipetted to opaque-walled 96-well plates at a density of 150,000 cells/180 μl/well. Fluorescence was measured using a plate reader (Synergy HTX, BioTek, USA), at an excitation wavelength of 485 nm and an emission wavelength of 528 nm. Once a baseline was established (3 measurements), 20 μl of the stimulant (free terpenoids, terpenoids-loaded NPs, and controls) solution was added to each well and measurement was continued for 1 h with one read every 40 seconds.
All solutions were prepared in 1 mM Ca Assay Buffer. Free terpenoids were first dissolved in DMSO, then a specific volume was diluted with the assay buffer to produce the required concentration. […]
A calcium signaling assay was utilized to evaluate the ion influx into HEK TRPV1 cells. Cells were dispersed in 1 mM calcium assay buffer and the intracellular calcium levels were measured using a plate reader in the presence of Fluo-4, as the fluorophore. […] Fluorescence changes in response to the free terpenoids, encapsulated terpenoids, and combinations of free and encapsulated terpenoids were detected and compared.

[2] = target: TRPV1 (Homo sapiens, UniProt Q8NER1); conditions: described in PCT/US2018/033956; cited from earlier work
[3] = cited from earlier work
[4] = Loss of myrcene during lyophilization for 24 h (weighing); type: physicochemical; conditions: lyophilized for 24 h; starting weight 8 or 48 mg
Experimental: To investigate whether myrcene is lost during lyophilization, 3 samples of either free myrcene, a mixture of myrcene and water, or a mixture of myrcene, water and PLGA were prepared in duplicate as illustrated in Table 16. Samples were lyophilized for 24 h. The vials containing the samples were weighed before and after lyophilization to calculate the weight of the dried sample.

T1 sequence (O35433 whole entry): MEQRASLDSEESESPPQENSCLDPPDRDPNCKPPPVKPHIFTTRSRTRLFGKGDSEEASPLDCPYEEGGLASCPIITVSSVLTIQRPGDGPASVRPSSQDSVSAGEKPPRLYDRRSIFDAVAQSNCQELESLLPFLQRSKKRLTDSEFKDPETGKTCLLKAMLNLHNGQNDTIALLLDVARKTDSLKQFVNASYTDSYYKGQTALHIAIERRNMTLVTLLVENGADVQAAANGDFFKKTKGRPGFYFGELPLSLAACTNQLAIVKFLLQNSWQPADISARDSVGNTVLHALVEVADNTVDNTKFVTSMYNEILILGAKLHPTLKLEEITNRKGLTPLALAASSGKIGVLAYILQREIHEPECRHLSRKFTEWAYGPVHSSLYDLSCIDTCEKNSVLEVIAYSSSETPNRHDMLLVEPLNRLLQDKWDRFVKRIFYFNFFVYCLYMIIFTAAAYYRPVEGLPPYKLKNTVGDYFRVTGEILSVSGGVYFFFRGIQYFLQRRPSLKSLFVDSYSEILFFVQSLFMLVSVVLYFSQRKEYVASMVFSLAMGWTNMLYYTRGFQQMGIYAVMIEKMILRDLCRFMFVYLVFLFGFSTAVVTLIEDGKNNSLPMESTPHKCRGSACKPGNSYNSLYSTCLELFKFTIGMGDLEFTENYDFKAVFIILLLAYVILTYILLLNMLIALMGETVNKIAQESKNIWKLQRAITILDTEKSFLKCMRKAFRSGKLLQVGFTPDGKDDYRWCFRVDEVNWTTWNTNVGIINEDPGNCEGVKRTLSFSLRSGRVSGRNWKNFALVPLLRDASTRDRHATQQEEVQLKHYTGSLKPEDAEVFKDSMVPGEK
TRPV1, sequence (Q8NER1 whole entry, species assumed): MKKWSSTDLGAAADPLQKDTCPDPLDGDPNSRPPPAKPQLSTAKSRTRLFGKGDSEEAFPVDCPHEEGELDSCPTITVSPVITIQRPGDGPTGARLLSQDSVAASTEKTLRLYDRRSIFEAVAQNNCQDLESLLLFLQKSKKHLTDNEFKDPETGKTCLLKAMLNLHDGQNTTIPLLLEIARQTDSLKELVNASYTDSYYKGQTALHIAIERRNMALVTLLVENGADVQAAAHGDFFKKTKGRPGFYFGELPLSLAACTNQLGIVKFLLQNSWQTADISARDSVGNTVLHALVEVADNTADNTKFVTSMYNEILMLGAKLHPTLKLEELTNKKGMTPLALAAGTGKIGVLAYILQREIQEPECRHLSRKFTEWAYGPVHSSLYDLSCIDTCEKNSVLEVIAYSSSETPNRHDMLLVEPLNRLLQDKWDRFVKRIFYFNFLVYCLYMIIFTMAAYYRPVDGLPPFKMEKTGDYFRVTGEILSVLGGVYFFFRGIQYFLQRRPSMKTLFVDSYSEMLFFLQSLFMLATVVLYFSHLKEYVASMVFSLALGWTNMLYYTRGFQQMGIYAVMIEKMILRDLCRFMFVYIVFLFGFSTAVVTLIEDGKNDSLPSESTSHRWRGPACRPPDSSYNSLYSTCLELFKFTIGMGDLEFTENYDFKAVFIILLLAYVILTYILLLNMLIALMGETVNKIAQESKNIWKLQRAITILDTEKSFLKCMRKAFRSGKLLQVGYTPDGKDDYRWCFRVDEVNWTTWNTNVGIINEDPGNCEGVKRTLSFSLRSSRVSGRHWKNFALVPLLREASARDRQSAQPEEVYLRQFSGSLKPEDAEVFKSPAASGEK

Row | Calcium response (fluorescence change), non-encapsulated individual terpenoids [1] | SMILES | TRPV1 agonist activity [2] | Vapor pressure ([3]; at 25° C.) | Solubility in water [3] | Weight after lyophilization [4]
1 | induced a calcium response | C=CC(C)(O)CCC=C(C)CCC=C(C)C (stereo not shown) [nerolidol, 3,7,11-Trimethyl-1,6,10-dodecatrien-3-ol] |  |  |  | 
2 | lowest calcium responses | C=C1CC/C=C(\C)CC[C@@H]2[C@@H]1CC2(C)C [β-caryophyllene, (1R,4E,9S)-4,11,11-Trimethyl-8-methylidenebicyclo[7.2.0]undec-4-ene] |  |  |  | 
3 |  | C=CC(=C)CCC=C(C)C [Formula F42] |  |  |  | 0.88 mg

Row | SMILES | Calcium response (fluorescence change), non-encapsulated individual terpenoids [1] | TRPV1 agonist activity [2] | Vapor pressure ([3]; at 25° C.) | Solubility in water [3] | Weight after lyophilization [4]
4 | C=CC(=C)CCC=C(C)C [myrcene, 7-methyl-3-methylideneocta-1,6-diene] | most intense response | TRPV1 agonist that causes TRPV1 desensitization after prolonged exposure | 2.09 mm Hg | not soluble in water | 
